Experimental data published in patent US11628208B2, “System and method for microneedle delivery of microencapsulated vaccine and bioactive proteins” (priority 2015, dated 2023).

Tests used:
RAW 264.7 cells = assay: MTS cell cytotoxicity assay; type: cell-based, mouse; conditions: 10 mg/mL, positive control, relative to DMEM-treated cells
Experimental: Particles were tested for their cytotoxic properties using MTS assay (Promega), which determines cell viability in culture. RAW 264.7 cells (mouse leukemic monocyte macrophage cell line) were grown in DMEM medium, supplemented with 10% fetal bovine serum and 1% antibiotic in a cell culture flask. The cell culture media was then removed and cells were treated with 2 mL trypsin-EDTA. Thus, cells were detached from the cell culture flask and suspended in 1 mL complete DMEM media. Cell count of the resulting suspension was determined by trypan blue dye exclusion method using Bio-Rad counter (TC10™ Automated cell counter, Bio-Rad, CA). Cell suspension equivalent to 10,000 cells was plated in a 96 well cell culture plate and complete DMEM media was added to attain a volume of 100 μL per well. Plate was incubated for 24 h and various concentrations (2, 1, 0.5, 0.25, 0.125, 0.0625 mg/mL) of 4T07 antigen loaded particles were added to wells (n=3 for each concentration) and again incubated for 24 h. Cells treated with DMEM media alone were used as a negative control and cells treated with benzalkonium chloride (10 mg/ml) were chosen as a positive control (n=3 each). […] The plate was incubated for 4 h at 37° C. in a humidified, 5% CO2 chamber and absorbance was recorded at 490 nm using a UV plate reader (BioTek instruments Inc., VT).

dendritic cells (DC 2.4) = assay: Nitric oxide release from dendritic cells exposed to RSV F-VLP vaccine; type: cell-based
Experimental: For in vitro analysis of immunogenicity of the F-VLP, dendritic cells (DC 2.4) were cultured and exposed to varying concentrations of the vaccine. The optimal concentration was then used to screen four different adjuvants (Poly I:C, Alum, MPL and MF59). Evaluation of innate and adaptive immunity was done using the nitric oxide assay and expression of cell surface markers using the C6 flow cytometer.
a. Following exposure to an antigen, dendritic cells (DC 2.4) are known to release nitric oxide and express cell surface markers that signal CD4+ Helper T cells and/or CD8+ Cytotoxic T cells.

[1] = test system: CD4+ and CD8+ T cell populations; assay: CD4/CD8 population analysis of splenocytes incubated with stimulated APCs; type: cell-based, Swiss Webster mice; conditions: 5 days
Experimental: The spleens were collected from the same mice that were harvested APCs from the intraperitoneal cavity, and the single-cell suspensions of the spleens were introduced into the stimulated APCs with a ratio of 1:1 (splenocytes:APCs). After a five-day incubation at 37° C. and 5% CO2, the splenocytes were harvested from the supernatant, washed with Hank's balanced salt solution and labeled with anti-mouse CD4 PE and anti-mouse CD8a FITC. The cells were analyzed for CD4^+ and CD8^+ T cell populations using BD Accuri® C6 flow cytometer.

APCs = assay: Nitric oxide assay (Greiss) on harvested APCs; type: cell-based, Swiss Webster mice; conditions: 2.5 μg adjuvant in MP + 2.5 μg M2p in MP, 20 hours
Experimental: 5 Sodium thioglycolate was injected into the intraperitoneal cavity of Swiss Webster (6-8 week old) with the amount of 40 mg per mouse to recruit the APCs (13)(14). After four days, these mice were euthanized and 5.0 mL of PBS was injected intraperitoneally into each mouse to harvest cells from the cavity. Collected cells were washed with PBS twice before adding the complete RPMI media. After these APCs adhered to the bottom of a T75 flask, the supernatant was removed and complete RPMI media was added in the presence of ConA ([…]).
The harvested APCs (5×10^4 cells/well) were seeded in Dulbecco's complete media in a 96 well plate. The soluble and particulate vaccines (with and without adjuvants) were introduced to the APCs with the same amount of antigen (2.5 μg) and adjuvant (2.5 μg). The induced APCs were incubated for 20 hours at 37° C. % CO2. Supernatants were collected and the amount of nitric oxide released in each group was analyzed using the Greiss chemical method (equal volumes of 1% sulphanilamide and 0.1% N-(1-naphthylethylenediamine)). The plate was read at a wavelength of 540 nm (15).

CCCCCCCCCCCCC[N+](C)(C)Cc1ccccc1 [benzalkonium chloride]
cell viability (RAW 264.7 cells): 21%

Poly I:C
amount of nitric oxide released, vaccine with adjuvant compared to vaccine alone (dendritic cells (DC 2.4)): much higher compared to vaccine alone

monophospholyl lipid A [MPL]
CD8+ T cell population compared to M2p MP treated group [1]: elevated

B1: Flagellin: flagellin from Salmonella typhimurium, adjuvant in microparticles (protein, UniProt P06179 2-495, looked up)
Flagellin: AQVINTNSLSLLTQNNLNKSQSALGTAIERLSSGLRINSAKDDAAGQAIANRFTANIKGLTQASRNANDGISIAQTTEGALNEINNNLQRVRELAVQSANSTNSQSDLDSIQAEITQRLNEIDRVSGQTQFNGVKVLAQDNTLTIQVGANDGETIDIDLKQINSQTLGLDTLNVQQKYKVSDTAATVTGYADTTIALDNSTFKASATGLGGTDQKIDGDLKFDDTTGKYYAKVTVTGGTGKDGYYEVSVDKTNGEVTLAGGATSPLTGGLPATATEDVKNVQVANADLTEAKAALTAAGVTGTASVVKMSYTDNNGKTIDGGLAVKVGDDYYSATQNKDGSISINTTKYTADDGTSKTALNKLGGADGKTEVVSIGGKTYAASKAEGHNFKAQPDLAEAAATTTENPLQKIDAALAQVDTLRSDLGAVQNRFNSAITNLGNTVNNLTSARSRIEDSDYATEVSNMSRAQILQQAGTSVLAQANQVPQNVLSLLR
CD4+ T cell population compared to M2p MP treated group [1]: elevated CD4+ T cell population
nitric oxide level compared to M2p MP group (APCs): significantly higher
